Values after ≈ are worked out from the molar mass of the structure shown. Where no end group is shown, it is not given here.
What was measured:
[1] = target: T1, MMP-2 (Homo sapiens, UniProt P08253); assay: MMP-2 inhibitor screening assay (fluorescent substrate method); assay type: biochemical
T1 sequence (P08253 110-660): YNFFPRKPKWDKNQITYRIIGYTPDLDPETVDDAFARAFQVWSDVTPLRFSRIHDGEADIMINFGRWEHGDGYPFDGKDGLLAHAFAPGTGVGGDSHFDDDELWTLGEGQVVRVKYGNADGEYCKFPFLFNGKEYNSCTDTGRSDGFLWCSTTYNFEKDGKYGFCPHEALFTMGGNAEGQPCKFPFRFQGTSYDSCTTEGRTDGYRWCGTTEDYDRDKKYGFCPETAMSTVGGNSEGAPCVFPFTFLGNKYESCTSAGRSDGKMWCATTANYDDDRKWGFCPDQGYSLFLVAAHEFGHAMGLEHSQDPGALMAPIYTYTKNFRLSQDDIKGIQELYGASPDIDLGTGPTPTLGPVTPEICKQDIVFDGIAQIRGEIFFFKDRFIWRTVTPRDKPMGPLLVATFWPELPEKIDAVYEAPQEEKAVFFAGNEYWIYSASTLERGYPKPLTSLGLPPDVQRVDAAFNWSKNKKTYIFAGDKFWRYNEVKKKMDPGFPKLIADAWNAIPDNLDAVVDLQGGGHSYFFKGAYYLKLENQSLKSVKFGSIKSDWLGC
Experimental: MMP‐2 Inhibitor Screening Assay: The MMP‐2 inhibitory activity of the samples was analyzed using a fluorescent substrate method, as previously described.23 The MMP substrate peptide MOCAC‐Pro‐Leu‐Gly‐Leu‐Dap(Dnp)‐Ala‐Arg‐NH2 was purchased from Sigma. […] The fluorescence intensity was measured at 328 nm for excitation and 393 nm for emission every 15 min for a 2 h period without interrupting the reaction using a fluorescence microplate reader (POLARstar Omega, Germany).

[2] = system: SMMC7721 cells; assay: MTT cell toxicity assay; assay type: cell-based; conditions: 24 h incubation, mean ± SD (n = 6)
Experimental: (§1) Data are given as the mean ± SD (n = 6).
Cell Toxicity Assay: Cytotoxicity in SMMC7221 cells was quantified using an MTT assay. Cells were incubated in Dulbecco's modified Eagle medium (DMEM) medium containing 10% fetal calf serum at 37 °C in an atmosphere of 5% CO2 in air. For the cytotoxicity assay, SMMC7721 cells were precultured in 96‐well cell culture plates at a density of 1.0 × 10^5 cells per well in 100 µL of medium and grown overnight.

[3] = system: SMMC7721 cells; assay: In vitro migration assay (transwell); assay type: cell-based; conditions: SMMC7721 cells treated 24 h with 2.5 µg mL^−1 DOX/well, then 24 h transwell incubation, crystal violet
Experimental: Microscopy images of b) migration and c) invasion and e,f) quantitative analysis of SMMC7721 cells that passed through the membrane. […] Cells without treatments were used as control.
Then, 500 µL of media were added to the lower chamber as a chemoattractant. […] Cells that got through the membrane and were located on the lower surface were fixed using 4% paraformaldehyde, stained with crystal violet, and quantified with a microplate reader (Leica, Germany).

[4] = system: SMMC7721 tumors; assay: Inhibition of liver tumor growth in mice bearing SMMC7721 tumors; assay type: in vivo; conditions: intratumor injection, 5 mg kg^−1 DOX, versus saline and KGFRWR groups
Experimental: At the end of the experiment, tumors were photographed and weighed.
The body weight and tumor volume were recorded and calculated three times a week for three weeks. The tumor length (L), which is the longest diameter of the tumor, and width (W), which is the diameter in the direction perpendicular to the length, were measured using Vernier calipers, and the tumor volume (V) was counted using the following formula: V = LW ^2/2. Then, mice were sacrificed and photographed, and the primary tumors and the lungs were striped, and then washed with cold PBS. Primary tumors were weighed and photographed. Histological sections of the primary tumors were used for the following three purposes: first, the sections were stained with H&E to detect tumor apoptosis and necrosis; second, TUNEL staining was used to detect DNA fragmentation in the nucleus of late apoptotic cells in the tissue; and third, sections were incubated with an anticaspase‐3 rabbit antibody (1:200 dilution) followed by a horseradish peroxidase‐labeled antirabbit immunoglobulins (Abcam, UK) for color development and then counterstained with hematoxylin.

[5] = system: SMMC7721 pulmonary metastasis; assay: SMMC7721 pulmonary metastatic mouse model; assay type: in vivo; conditions: SMMC7721 cells injected through the tail vein into nude mice, day 21, compared with saline/control group, n = 6
Experimental: The antimetastatic effects were evaluated by determining the number of metastatic nodules and the degree of H&E staining in the lung tissues.
as §1
Then, mice were sacrificed and photographed, and the primary tumors and the lungs were striped, and then washed with cold PBS. […] For pulmonary metastatic assays, SMMC7721 cells were trypsinized, suspended in complete medium at a density of 1 × 10^7 cells mL^−1, and then immediately intravenously injected into the nude mice through the tail vein. Images of metastatic nodules on the lungs were obtained with a camera and nodules were counted; histological sections of lungs were stained with H&E for the histopathological examination.

[6] = rat, in vivo
Experimental: The dynamic behavior of the nanofiber was monitored at predetermined intervals after injection by liquid chromatography‐tandem mass spectrometry (LC/MS/MS).
The rats were anaesthetized with ether. A heparinized capillary was then inserted into eyeground veins to obtain 0.3 mL of blood in a plastic centrifuge tube. Plasma samples were collected by centrifugation at 12 000 rpm for 5 min and then stored immediately at −20 °C until analysis. Next, 300 µL of acetonitrile containing an internal standard (clarithromycin, 20 ng mL^−1) were added to the 100 µL plasma samples to precipitate protein, the mixture was centrifuged at 13 000 rpm for 5 min, and 50 µL of supernatant were assayed by LC/MS/MS.

Compound | IC50 [1] | IC50 (SMMC7721 cell growth) [2] | migration rate compared with control [3] | tumor growth (in words) [4] | number of pulmonary metastatic nodules [5] | T1/2 [6] | T max [6]
KGFRWR-NH2 [KGFRWR] | 14.2 µM | – | – | – | – | – | –
COc1cccc2c1C(=O)c1c(O)c3c(c(O)c1C2=O)C[C@@](O)(C(=O)CO)C[C@@H]3O[C@H]1C[C@H](N)[C@H](O)[C@H](C)O1 [DOX, doxorubicin] | – | 1.888 µg/mL (≈ 3.47 µM) | 39.4% | inhibited tumor growth | distinctly decreased | 6.90 ± 1.20 h | 0.43 ± 0.16 h
